Assay results reported in patent US11771738B2 (Zoetis Services LLC, priority 2018, dated 2023).
Like-named read-outs stand apart in the source and are kept apart here.

Experiments:
Format in all cases: cell-based
[1] = system: D. immitis L4 larvae; test: Dirofilaria immitis, L4 Stage (DiL4) In Vitro Assay; details: for minimal effective concentration: Dirofilaria immitis, 72 h, read-out: DiL4 MED, Minimum Effective Dose, D. immitis L4 larvae motility, in vitro; for DiMf/DiL4: larval stage selectivity, ratio of DiMf MED to DiL4 MED
[2] = system: third stage larvae of Haemonchus contortus; test: Haemonchus contortus, Larvae Stage 3 (HcL3) In Vitro Assay; details: Haemonchus contortus, 96 h
[3] = system: microfilariae of Dirofilaria immitis; test: Dirofilaria immitis, Microfilaria (DiMf) In Vitro Assay; details: Dirofilaria immitis, 72 h, read-out: DiMf MED, Minimum Effective Dose, D. immitis microfilariae motility, in vitro
[4] = read-out: HcL3 MED, Minimum Effective Dose, H. contortus third stage larvae, approximately 96 hours
[5] = read-out: HcL3 MED (symbol after Ex#), approximately 96 hours incubation, multiple-resistant field isolate

Row | Structure (SMILES) | minimal effective concentration [1] | DiMf/DiL4 [1] | minimal effective concentration [2, 4] | minimal effective concentration [3] | minimal effective concentration [2, 5] | minimal effective concentration ([2]; read-out: HcL3 MED, approximately 96 hours incubation, multiple-resistant field isolate)
1 | COc1cccc(Cc2ccc(C[C@H]3OC(=O)[C@H](CC(C)C)N(C)C(=O)[C@@H](C)OC(=O)[C@H](CC(C)C)N(C)C(=O)[C@@H](Cc4ccc(Cc5cccc(OC)c5)cc4)OC(=O)[C@H](CC(C)C)N(C)C(=O)[C@@H](C)OC(=O)[C@H](CC(C)C)N(C)C3=O)cc2)c1 [Example 1-5, (3S,6R,9S,12R,15S,18R,21S,24R)-3,9,15,21-tetraisobutyl-6,18-bis(4-(3-methoxybenzyl)benzyl)-4,10,12,16,22,24-hexamethyl-1,7,13,19-tetraoxa-4,10,16,22-tetraazacyclotetracosan-2,5,8,11,14,17,20,23-octaone] | 0.001 µM | 500 | > 100 µM | 0.5 µM |  | 
2 | COc1ccccc1Cc1ccc(C[C@H]2OC(=O)[C@H](CC(C)C)N(C)C(=O)[C@@H](C)OC(=O)[C@H](CC(C)C)N(C)C(=O)[C@@H](Cc3ccc(Cc4ccccc4OC)cc3)OC(=O)[C@H](CC(C)C)N(C)C(=O)[C@@H](C)OC(=O)[C@H](CC(C)C)N(C)C2=O)cc1 [Example 1-11, (3S,6R,9S,12R,15S,18R,21S,24R)-3,9,15,21-tetraisobutyl-6,18-bis(4-(2-methoxybenzyl)benzyl)-4,10,12,16,22,24-hexamethyl-1,7,13,19-tetraoxa-4,10,16,22-tetraazacyclotetracosan-2,5,8,11,14,17,20,23-octaone] | 0.001 µM | 300 | > 10 µM | 0.3 µM |  | 
3 | CC(C)C[C@H]1C(=O)O[C@H](Cc2ccc(C(c3ccc(F)c(F)c3)n3cccn3)cc2)C(=O)N(C)[C@@H](CC(C)C)C(=O)O[C@H](C)C(=O)N(C)[C@@H](CC(C)C)C(=O)O[C@H](Cc2ccc(C(c3ccc(F)c(F)c3)n3cccn3)cc2)C(=O)N(C)[C@@H](CC(C)C)C(=O)O[C@H](C)C(=O)N1C (stereo partly drawn) [Example 1-18, (3S,6R,9S,12R,15S,18R,21S,24R)-6,18-bis(4-((3,4-difluorophenyl)(1H-pyrazol-1-yl)methyl)benzyl)-3,9,15,21-tetraisobutyl-4,10,12,16,22,24-hexamethyl-1,7,13,19-tetraoxa-4,10,16,22-tetraazacyclotetracosan-2,5,8,11,14,17,20,23-octaone] | < 0.0001 µM | >30 | > 100 µM | 0.003 µM |  | 
4 | CC(C)C[C@H]1C(=O)O[C@H](Cc2ccc(Cc3ccccc3)cc2)C(=O)N(C)[C@@H](CC(C)C)C(=O)O[C@H](C)C(=O)N(C)[C@@H](CC(C)C)C(=O)O[C@H](Cc2ccccc2)C(=O)N(C)[C@@H](CC(C)C)C(=O)O[C@H](C)C(=O)N1C [Example 2-1, (3S,6R,9S,12R,15S,18R,21S,24R)-6-benzyl-18-(4-benzylbenzyl)-3,9,15,21-tetraisobutyl-4,10,12,16,22,24-hexamethyl-1,7,13,19-tetraoxa-4,10,16,22-tetraazacyclotetracosan-2,5,8,11,14,17,20,23-octaone] | 0.001 µM | 20 | 0.65 µM | 0.02 µM | < 1 µM | ≤ 1 µM
5 | CC(C)C[C@H]1C(=O)O[C@H](Cc2ccc(Cc3ccc(F)cc3)cc2)C(=O)N(C)[C@@H](CC(C)C)C(=O)O[C@H](C)C(=O)N(C)[C@@H](CC(C)C)C(=O)O[C@H](Cc2ccccc2)C(=O)N(C)[C@@H](CC(C)C)C(=O)O[C@H](C)C(=O)N1C [Example 2-4, (3S,6R,9S,12R,15S,18R,21S,24R)-6-benzyl-18-(4-(4-fluorobenzyl)benzyl)-3,9,15,21-tetraisobutyl-4,10,12,16,22,24-hexamethyl-1,7,13,19-tetraoxa-4,10,16,22-tetraazacyclotetracosan-2,5,8,11,14,17,20,23-octaone] | 0.0007 µM | 71.4 | 3.3 µM | 0.05 µM | 1 to 3.3 µM | 
